From patent US7763708B2, “Methods and compositions for modulating C5-a-mediated inflammatory responses” (Institute for Protein Science Co., Ltd., priority 2004, dated 2010) come the findings set out here.

Entries after “also recorded” stand apart in the source; their conditions may differ. Ends that are not written are not given here. Some results are limits rather than exact numbers.

For one data set, the target named is T1, C5a (Homo sapiens, UniProt P01031).
T1 sequence (P01031 678-751 limits assumed): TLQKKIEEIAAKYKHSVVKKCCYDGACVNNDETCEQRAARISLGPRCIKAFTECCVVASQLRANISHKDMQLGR
Nature of the data set: Intracellular Ca++ mobilization in neutrophils triggered by C5a (calcium imaging). The format is cell-based. The following applies: 1 nM C5a, 350 nM peptide, human neutrophils (FIG. 5). On the procedure: Neutrophils were isolated from fresh human blood with 0.2% EDTA as an anticoagulant. Whole blood was collected from a healthy volunteer (a collaborator of this study) via vein puncture. A 2.4 ml aliquot of blood was then layered onto 2 ml Mono-Poly Resolving Medium (Dainihon Seiyaku, Tokyo, Japan) in a centrifuge tube and centrifuged at 400 g for 20 min at room temperature. The polymorphonuclear leukocytes (neutrophils) were then harvested and the cell fraction was washed with Hanks' balanced salt solution (HBSS).
The isolated neutrophils were loaded with 2 μM Fura-2/AM (Molecular Probes, Eugene, Oreg.) mixed with 0.02% Pluronic F-127 (Molecular Probes) and 0.2% DMSO in HBSS for 40 min at 37° C. The suspension was agitated to prevent sedimentation. After loading, the cells were washed with HBSS twice and suspended in HBSS containing 0.3% BSA (HBSS/BSA). Approximately 1×10^6 cells in 900 μl HBSS/BSA were added to a poly-L-lysine-coated 35 mm Petri dish and allowed to attach to the bottom of the dish for 30 min. Changes in intracellular calcium concentrations in response to C5a or a mixture of peptides (C-peptides and C5a) were determined by monitoring the ratio of fluorescence light emission at 5I0 nm as a result of excitation at 340 and 380 nm at 37° C. using an ARGUS HiSCA calcium imaging system (Hamamatsu Photonics, Hamamatsu, Japan). The mixture of peptides and C5a was incubated in an Eppendorf tube on ice for 30 min in the HBSS solution and then applied to the cells after a 2 min baseline recording.
The effect of C-peptides on C5a function was analyzed by measuring Ca^++ mobilization using an ARUGUS HiSCA calcium imaging system. Administration of 0.7 nM recombinant human C5a (RhC5a) induced a transient increase in the level of intracellular Ca^++ of human neutrophils (FIG. 3a). The level of this activation was about 50% of the maximum achieved with higher concentrations of C5a. A mixture of C-peptide and C5a was incubated in an Eppendorf tube on ice for 30 min in the HBSS solution and then applied to the cells. […]

The subject of another data set is ICR mice. Nature of the data set: Lethal shock of mice induced by intravenous CAWS (Candida albicans water soluble extract). The format is in vivo, mouse. The protocol: (§1) Within one exemplary embodiment illustrating construction of useful C5a-modulatory peptide analogs and mimetics from a direct C5a complement peptide (or reference C5a-modulatory peptide sequence), an acetylated derivative of Pep-A (A-Pep-A) was constructed and tested for use within the methods and compositions of the invention. A-Pep-A is a peptide with the same sequence as that of Pep-A with acetylated alanine at the amino-terminal amino acid. Effect of A-Pep-A was tested on the lethal shock of mice induced by intravenous administration of CAWS (Candida albicans water soluble extract). […] ICR mice were injected with 4 mg/kg of A-Pep-A intraperitonally (i.p.) or intravenously (i.v.) 10 min before i.v. challenge with […] 100 μg CAWS. […] Effect of A-Pep-A was also evaluated on the skin reaction of rats. As an indicator dye of vascular exudation, rats were i.v. injected with 0.5 ml of Evans Blue (8 mg/ml in saline) 30 min before intradermal (i.d.) injection of 5 μg 512 (anti-Crry monoclonal antibody) together with Pep-A, A-Pep-A of saline control).

For the next data set, the system named is skin reaction of rats. Kind of data set: Skin reaction of rats: Evans Blue exudation after intradermal 5I2 (anti-Crry mAb). It is filed as in vivo, rat. The protocol:
as §1, with “As an indicator dye of vascular exudation, rats were i.v. injected with 0.5 ml of Evans Blue (8 mg/ml in saline) 30 min before intradermal (i.d.) injection of 5 μg 512 (anti-Crry monoclonal antibody) together with Pep-A, A-Pep-A of saline control).” left out

For data set [1], the system named is Rat Lethal Shock Model (C5a-mediated). Kind of data set: Rat lethal shock induced by anti-Crry antibody following LPS priming. It is filed as in vivo. The protocol: Administration of anti-rat Crry mAb (5I2) (Takizawa et al., J. Immunol. 152:3032, 1994) induces lethal shock in rats primed with a trace amount of lipopolysaccharide (LPS) (Matsuo et al., J. Exp. Med. 180:1619, 1994; Mizuno et al., J. Immunol. 162:5477, 1999). With this model, all rats sensitized with 0.05 mg/kg of LPS died within 30 min of injection of mAb 512. Male Wistar rats weighing about 250 g were purchased from Chubu Kagaku Shizai (Nagoya, Japan) and were allowed free access to food and water. Each rat was injected with 0.05 mg/kg of LPS, prepared from a phenol extraction of Salmonella typhosa (Sigma Chemical Co., St. Louis, Mo.) in 250 μl saline. Then, 0.75 mg/kg of 5I2 was administered 20 h later. Ten minutes before the injection of 5I2, saline or C-peptides in saline were injected. All injections were intravenously administered through the tail vein. Animal experiments were carried out according to Nagoya City University Guideline for the Care and Use of Experimental Animals and approved by the Nagoya City University Graduate School of Medical Sciences Animal Care Committee.
Administration of 0.75 mg/kg anti-rat Crry monoclonal antibody (Takizawa et al., J. Immunol. 152:3032, 1994) induces rapid lethal shock in rats primed with 0.05 mg/kg of LPS 20 h earlier (Matsuo et al., J. Exp. Med. 180:1619, 1994; Mizuno et al., J. Immunol. 162:5477, 1999). […] In order to investigate the inhibitory effect of the C-peptides in this model, we injected rats with saline (for the control) or C-peptides in 250 μl of saline 10 min before the 5I2 injection. All rats injected with saline died within 30 min (Table 1). However, all rats injected with 4 mg/kg of Pep-A survived. […] Some of the surviving rats stopped breathing briefly in the first 1 or 2 min after injection of 5I2, but were soon breathing again and about 20-40 min later began moving.

Data set [2] deals with TGW human neuroblastoma cells bearing C5aR. Nature of the data set: Patch clamp measurement of inward ion current pulses induced by PL37-MAP. The format is cell-based. The settings on record: 500 nM PL37-MAP. The protocol: The measurements were carried out on TGW human neuroblastoma cells bearing C5aR. Cells were voltage-clamped at room temperature at a holding potential of −70 mV using a whole cell clamp configuration. The instruments used for electrophysiology were as follows: an Axopatch 200-A patch clamp amplifier, a Digidata-1200 data acquisition system and pCLAMP 6.02 software from Axon Instruments Inc., (Foster City, Calif.). The head stage of the amplifier was fitted to an MHW-3 hydraulic manipulator manufactured by Narishige Inc. (Tokyo, Japan); and the cells were visualized using an Olympus IMT-2 invert microscope. Data acquisition and analysis were performed using an IBM compatible personal computer. Patch electrodes (OD=1.5 mm, thin wall, Garner Glass Co., Claremont, Calif.) were pulled with a PP-83 puller and polished with an MF-83 microforge (Narishige Inc). The resistance of patch electrodes was 8-10 MΩ. The solutions used were as follows: an extracellular solution (10 mM Hepes, 140 mM NaCl, 5 mM KCI, 2 mM CaCl2, 2 mM MgCl2, 10 mM glucose, pH=7.34) and an intracellular pipette solution (10 mM Hepes, 110 mM KCl, 15 mM NaCl, 0.1 mM CaCl2, 2 mM MgCl2, 1 mM EGTA, pH 7.25). […]
Inward calcium current pulses detected by a patch clamp assay were evoked when TGW cells were exposed to 500 nM PL37-MAP (FIG. 2a). […]
(Patch clamp records ionic current or voltage across a cell membrane.)

In the case of “A-Pep-A: Peptide with the same sequence as Pep-A with acetylated alanine at the amino-terminal amino acid (Ac-ASGAPAPGPAGPLRPMF)”, in the data set with C5a, the “Inhibition of C5a-triggered Ca++ mobilization” value is reported as “completely inhibited; also recorded: much stronger effect than Pep-A”. The Dead/total in the data set on ICR mice (4 mg/kg i.p., CAWS 100 μg/mouse) is listed as 3/3; in the data set with ICR mice (4 mg/kg i.p., CAWS 200 μg/mouse), 3/3; in the data set with ICR mice (4 mg/kg i.v., CAWS 100 μg/mouse), “rescued half of mice”; with ICR mice (4 mg/kg i.v., CAWS 100 μg/mouse, listed as A-PepA), 2/4; with ICR mice (4 mg/kg i.v., CAWS 200 μg/mouse), 3/3. Further, in the data set on skin reaction of rats (5I2 2.5 μg + peptide 40 μg i.d., spots measured from reverse side of removed skin), the “Blue spots at 2 h” value is listed as 3 +/− 1. Also, the “Inhibition of dye exudation / skin inflammation” value in the data set with skin reaction of rats (summary of Table 3) was “suppressed the dye exudation”.
Consider “ASGAPAPGPAGPLRPMF [Pep-A, ASGAPAPGPAGPLRPMF]”, for which the “Time in which peptide had been degraded in vivo” value in data set [1] (rat, inferred from loss of effect at 30 min pre-dosing) is given as ≤ 30 min. Further, the “Harmful / side effects of the peptide in rats” value in data set [1] (rats injected with Pep-A (LPS sensitized, without anti-Crry mAb)) is listed as “survived with no harmful effect; also recorded: without any noticeable deleterious side effects”.
“PL37-MAP: PL37 (C5a fragment aa 37-53, RAARISLGPRCIKAFTE, SEQ ID NO: 2) in multiple antigenic peptide form (also: multiple antigenic peptide form on lysine core) [reference compound]”: in data set [2], the “Amplitude of induced inward current pulses” value stood at 500 pA.
